In patent US8846115B2, “Anti-inflammatory cyclooxygenase inhibitors” (Metaproteomics, LLC, priority 2001, dated 2014):
Like-named read-outs stand apart in the source and are kept apart here.

Solubility (aqueous solution that can be made) (pH 7.5): 20 % aqueous solution
Solubility (aqueous solution that can be made) (pH 9): 30 % aqueous solution
Substance: iso-alpha acids
